# Reference: patent US5498624A, “Selected pyrazolyl derivatives” (Monsanto Company, priority 1995, dated 1996)
# Like-named read-outs stand apart in the source and are kept apart here.
# What was measured:
# Succinate Dehydrogenase = experiment: Enzyme Inhibition I-50 (WGB): Succinate Dehydrogenase Assay using Septoria nodorum mitochondria; format: biochemical
# Description: Succinate Dehydrogenase Assay using Septoria nodorum mitochondria--Septorianodorum mycelia are prepared from spores via shake culture for 40-48 hours in 3% malt extract at room temperature. The mycelia are harvested by centrifugation and the pellets obtained are stored in the -80° C. freezer until use.
# Mitochondria are isolated by a method adapted from White (Biochem. Biophys. Res. Commun. 44 (1971) 1212-19). Fifteen to twenty grams of frozen mycelia are resuspended in a 250 mL medium containing 0.25M sucrose, 5 mM tetrasodium ethylenediamine tetraacetic acid (Na4 EDTA), pH 7.0 containing 1.5 g/liter bovine serum albumin (BSA) and placed in a Bead Beater chamber (BioSpec Products, Bartlesville, Okla.). Zirconium oxide beads (0.5 mm) are added to finish filling the chamber. Four 30s beats separated by 2 rain temperature equilibration periods on ice are used to break the mycelia. The homogenate is centrifuged for 20 min at 3000×g and 4° C. to remove debris. The supernatant is recentrifuged at 20,000×g for 20 min at 4° C. The resulting pellet is resuspended in BSA-free sucrose/EDTA medium (40 mL) using a glass tissue homogenizer and teflon pestle and recentrifuged at 27,000×g for 15 min at 4° C. The pellet is resuspended in BSA-free sucrose/EDTA medium (~3 mL) and used for SDH assays.
# The enzyme activity is measured at […] in a solution containing 50 mM potassium phosphate, pH7.2; 1 mM potassium cyanide; 45 μM 2,6-dichlorophenol indophenol (DCPIP) and 17 mM disodium succinate in a final volume of 1 mL with a Perkin-Elmer Lambda 7 ultraviolet-visible spectrophotometer. The test compounds are added as acetone solutions (final concentration of acetone less than or equal to 1%(v/v)). The mitochondrial preparations are used to initiate the reaction. All rates are corrected for succinate-independent dye reduction. Semilog plots of percentage inhibition versus test compound concentration are used to determine inhibition expressed as I50 (μM) which is the concentration required to inhabit the rate of DCPIP reduction by 50%. The commercial fungicide carboxin is used as a standard throughout [I50 (μM)=5.0±2.2; n=52].
# Septoria nodorum [1] = experiment: Wheat Glume Blotch (WGB) In Vitro; format: cell-based; parameters: key: 0: no inhibition of mycelial growth; 1: slight inhibition of mycelial growth; 2: moderate inhibition of mycelial growth; 3: strong inhibition of mycelial growth; details: 4-6 days at 25° C.
# Description: A) Pathogen/Inoculum Production--The wheat glume blotch fungus, Septoria nodorum, is cultured on yeast/malt agar at 22° C. and 12 hours fluorescent light. Several sterile loops full of mature pycnidia produced on a 7 day old culture plates are added to 30 mls of 1/4 strength potato dextrose broth. After 15 minutes the suspension is stirred, and adjusted to a concentration of 3×10^5 spores/mi.
# B) Compound Preparation and Test Execution--200 μl of 1/4 strength potato dextrose broth is placed in each well of a 96 well microtiter plate. […] The commercial standard used is flusilazole, at equivalent rates.
# C) Inoculation/Incubation--50 μl of a 3×10^5 spores/ml suspension obtained using the method above is added to each well. The 96-well plate is incubated for 4-6 days at 25° C., 12 hours fluorescent light.
# (§1) D) Evaluation--After incubation, each well is visually assessed for growth inhibition on the following 0-3 scale:
# (§2) 0=no inhibition of mycelial growth
# (§3) 1=slight inhibition of mycelial growth
# (§4) 2=moderate inhibition of mycelial growth
# (§5) 3=strong inhibition of mycelial growth
# [2] = tested on: Erysiphe graminis f. sp. tritici; experiment: Wheat Powdery Mildew Foliar Assay (WPM Prot); format: in vivo
# Description: A) Pathogen/Inoculum Production--Leaf material infected with the wheat powdery mildew fungus, Erysiphe graminis f. sp. tritici, is maintained continuously on wheat seedlings, cv. Caldewell.
# (B) Host Propagation, (C) Compound Preparation and (D) Compound Application follow as per Example 1.
# (E) Inoculation/Incubation--Inoculation of the test plants takes place 24 hours after compound application. Inoculation is accomplished by gently shaking plants previously infected with the Erysiphe graminis f. sp. tritici fungus over the test plants. This process liberates a cloud of spores which effectively and uniformly fall onto the test plants. After inoculation the plants are returned to the environmental conditions under which they were grown.
# (F) Evaluation and (G) Data follow as per Example 1. The percent protection values for the compounds of the present invention are as set out in the Table below.
# [3] = tested on: Pseudocercosporella herpotrichoides var. tritici; experiment: Wheat True Eyespot In Vitro Assay (WES In Vitro); format: cell-based; parameters: key: 0: no inhibition of mycelial growth; 1: slight inhibition of mycelial growth; 2: moderate inhibition of mycelial growth; 3: strong inhibition of mycelial growth; details: 3 days at 19° C.
# Description: A) Pathogen/Inoculum Production--A mycelial transfer of Pseudocercosporella herpotrichoides var. tritici is placed onto potato dextrose agar plates and allowed to grow for 40 days at 20 ° C., without light. Five agar discs are taken from the actively growing culture and are placed equidistant, mycelial side down, onto a water agar plate, and incubated at 10 ° C. with 10 hours of fluorescent light per day. After 5 days of incubation, sporulation on the transferred discs begins, and plates are flooded with 3-5 mls sterile deionized water. One-half ml aliquots are taken from the resulting spore suspension and placed on new water agar plates. Spores are spread across plates using a bent glass rod and incubated at 10 ° C. with 10 hour fluorescent light periods per day. In 5-10 days, a lawn of spores is produced and can be "harvested".
# B) Compound Preparation and Test Execution--200 μl of 1/4 strength potato dextrose broth is placed in each well of a 96 well microtiter plate. […] The commercial standard used is prochloraz at equivalent rates.
# C) Inoculation/Incubation--50 μl of a 1×10^6 spores/ml suspension harvested using the method above is added to each well. The 96 well plates are incubated for 3 days at 19° C. in the dark.
# as §1, §2, §3, §4, §5
# Septoria nodorum [4] = experiment: Wheat Glume Blotch Foliar Assay, protectant (WGB Prot); format: in vivo; details: 10 ppm, application two days pre-inoculation
# Description: A) Host Propagation--Winter wheat plants, cv. Caldwell, are grown in 5.7 cm^2 pots, three per pot, and maintained in a growth chamber set at 20° C., 80% RH with a 12 hour photoperiod.
# B) Compound Preparation--A 1.0% stock solution of each of the compounds of the present invention is first prepared utilizing an appropriate solvent such as acetone, water or DMSO. This stock is then used to prepare the final spray solution which contains the compound at the desired dosage, eg 100 ppm and 20 ppm, acetone at 20% v/v, Tween®20 at .05% w/v, and water at about 80%. Commercial standard used is tebuconazole at equivalent rates.
# C) Compound Application, Seedlings are sprayed at the two-leaf stage (GS 12) using a DeVilbiss Model 152 hand operated sprayer set at 15-20 psi. Six ml of the test solution per treatment are applied to three pots. In the protectant assay (EXAMPLE 8), the compound application is made two days pre-inoculation. In the curative assay (EXAMPLE 9), the compound is applied during a brief interruption of the disease incubation period two days post-inoculation.
# D) Pathogen Production/Inoculation--The wheat glume blotch fungus, Septoria nodorum, is maintained in the pycnidial state on yeast malt agar (YMA) and transferred weekly by streaking a suspension of conidia obtained from a ten to twelve day old sporulating culture onto fresh YMA plates. The plates are incubated at 20° C. with a 12 hour photoperiod.
# Test inoculum is prepared by flooding seven day old culture plates with deionized water amended with Tween®20 (0.1% v/v) and gently scraping the pycnidia to release the extruding masses of conidia. The resulting spore suspension is filtered through two layers of cheese cloth and adjusted to 4×10^6 spores/ml utilizing the Tween®20 solution.
# Forty-eight hours after the compound application and prior to inoculation, the test plants are preconditioned for at least one hour in a dark growth chamber set at 20° C. and 100% RH. After the preconditioning period is over, the conidial suspension is applied to run-off using a DiVilbiss hand operated sprayer. The plants are then returned to the preconditioning chamber and incubated at the same settings for 96 hours. Light is supplied to the plants during the last twelve hours of incubation. At the end of the 96 hour period, the plants are returned to the environmental conditions under which they were grown.
# E) Test Evaluation--Eight to ten days after removal from the high humidity chamber, or twelve to fourteen days after inoculation, treatments are evaluated by visually estimating the percentage of the leaf area (on the first leaf) covered with lesions. Three ratings are made on each pot which constitutes a replicate. Each replicate then receives a numerical mean by averaging the three values. Percent disease, as well as percent control values are calculated. The percent control values obtained from these assays for the compounds of the present invention are as set out in the Table below.
# [5] = tested on: Botrytis cinerea Mitochondria; details: 1 μM concentration; cited from earlier work
smiles,measurement,setting,value
"CCO[C@H]1CC[C@H](c2ccccc2NC(=O)c2cn(C)nc2C(F)F)CC1 [Number 7, 1H-pyrazole-4-carboxamide, 3-(difluoromethyl)-N-[2-(4-ethoxycyclohexyl)phenyl]-1-methyl-,trans-]",IC50,"Succinate Dehydrogenase; DCPIP reduction, read-out: WGB enzyme I-50",0.17 µM
same,WGB In Vitro growth inhibition 0-3 scale,Septoria nodorum [1]; 0.1 ppm,0
same,WGB In Vitro growth inhibition 0-3 scale,Septoria nodorum [1]; 0.5 ppm,0
same,WGB In Vitro growth inhibition 0-3 scale,Septoria nodorum [1]; 5.0 ppm,1
same,WPM Prot percent disease control,[2]; 500 ppm foliar protectant,96%
same,WES In vitro growth inhibition 0-3 scale,[3]; 0.1 ppm,0
same,WES In vitro growth inhibition 0-3 scale,[3]; 0.5 ppm,0
same,WES In vitro growth inhibition 0-3 scale,[3]; 5.0 ppm,1
Cn1cc(C(=O)Nc2ccccc2C2CCC(C(F)(F)F)CC2)c(C(F)F)n1 (stereo not drawn) [Number 8],WGB Prot percent control,Septoria nodorum [4],85%
same,WPM Prot percent disease control,[2]; 10 ppm foliar protectant,91%
"CC1=C(C(=O)Nc2ccccc2)SCCO1 [carboxin, reference compound]",IC50,"Succinate Dehydrogenase; standard throughout, n=52, read-out: I50",5 ± 2.2 µM
same,respiratory inhibition,[5],68%
